Measurements as given in patent publication US20260224538A1 (Purdue Research Foundation, priority 2023, published 2026).

Experiments:
α-synuclein (α-syn) = molecular target: T1, α-synuclein (α-syn) (Homo sapiens, UniProt P37840); assay: Thioflavin-T (ThT) fluorescence assay of α-syn fibril formation; format: biochemical; details: compounds at 100 μM, α-syn 6.25 μM, control 0.25% DMSO; for remaining activity at 100 µM: read-out: ThT a-Syn (%), maximum thioflavin T (ThT) intensity in percentage
T1 construct: purchased rPeptide
Protocol: (§1) Thioflavin-T (ThT) fluorescence assays. Thioflavin-T (ThT) fluorescence assays were used to monitor fibril formation of recombinant Ap (fragments 1-40 and 1-42), recombinant α-syn, recombinant tau isoform 2N4R, synthetic IAPP, and synthetic TTR peptides treated with BTA and its derivatives. The IAPP ThT assay was performed in 10 mM PBS (pH 7.4) at a final concentration of 10 μM for both IAPP and ThT as published previously. Aβ fragments 1-40 and 1-42 were tested at 7 μM in 10 mM of PBS using ThT at a final concentration of 20 μM. Kinetics of α-syn fibrillization were performed as published previously.^36-37 TTR fragment kinetics of fibril formation were assessed at 10 μM in 100 mM sodium acetate buffer supplemented with 100 mM KCl and 1 mM ethylenediaminetetraacetic acid (EDTA) (pH 4) with 20 μM ThT. The fluorescence emission experiments were performed with the excitation and emission wavelengths set at 440 and 485 nm, respectively, with a Synergy HT multi-mode microplate reader (BioTek, Winooski, VT). Samples were measured in three replicates, and the experiments were repeated three times using at least two different stock solutions. For each time point, arbitrary units of fluorescence were calculated from the mean values normalized against the maximum value in each completed assay. The lag time for each condition was calculated as previously described. All results contained in histograms were presented as mean±SEM. Data were analyzed by the one-way analysis of variance with Dunnett's multiple comparisons between controls and compounds. Differences were considered statistically significant at p<0.05.
(§2) Compounds with the highest anti-fibrillary activity were tested at 3.125, 6.25, 12.5, 25, 50, and 100 μM to obtain dose-response curves with prepared α-syn and 2N4R tau at 6.25 μM and 6 μM, respectively. Compounds were tested with α-syn using a previously published procedure. Concerning the tau (isoform 2N4R) kinetics of fibril formation, measurements of ThT fluorescence were performed with a solution of the protein diluted to a final concentration of 6 μM in PBS (pH 7.4) supplemented with 1.5 μM heparin, 20 μM ThT, 2.5 mM DTT, and 100 μM compound. Aliquots of the diluted protein solution (100 μL each) were pipetted into the wells of a 96-well plate, and a Teflon ball was added to each well. The plate was incubated at 37° C. with constant shaking at 1,000 rpm in a Tecan Spark plate reader. ThT fluorescence was measured every 15 minutes with excitation and emission wavelengths of 440 nm and 480 nm, and the data were plotted using GraphPad Prism.

[1] = molecular target: T2, transthyretin fragment peptide (TTR81-127) (Homo sapiens, UniProt P02766); assay: ThT fluorescence assay of TTR81-127 fibril formation; format: biochemical; details: for remaining activity at 100 µM: compounds at 100 μM, TTR81-127 10 μM, control 0.25% DMSO, read-out: ThT TTR81-127 (%), maximum thioflavin T (ThT) intensity in percentage; for TTR81-127 fibril formation (ThT): compound 100 μM, molar ratio 1:10
T2 construct: TTR fragment 81-127 was obtained from AnaSpec; purchased AnaSpec; host or cells: synthetic peptide
Protocol: as §1

α-syn [2] = molecular target: T3, α-syn (Homo sapiens, UniProt P37840); assay: Photo-induced cross-linking of unmodified proteins (PICUP), α-syn oligomerization; format: biochemical; details: compound 50 μM, molar ratio 1:5 (protein:compound)
T3 construct: purchased rPeptide
Protocol: (§3) Photo-induced Cross-linking of Unmodified Proteins (PICUP) Assay. To induce oligomerization by cross-linking, α-syn (from Rpeptide, LLC) and tau isoform 2N4R were diluted in 10 mM phosphate buffer (pH 7.4) to reach a final concentration of 10 μM. Different compounds were added to the protein solution at a final concentration of 50 μM, resulting in a molar ratio of 1:5. To confirm the gradual effect of the compounds on the inhibition of α-syn oligomerization, the compounds were tested at final concentrations of 3.125, 6.25, 12.5, 25, and 50 μM. The controls consisted of samples without light exposition, without Ru(bpy) or ammonium persulfate, and without compound (i.e., 0.125% DMSO). The cross-linking reaction was initiated by the addition of 2 μL of Ru(bpy) (300 μM final concentration) and 2 μL ammonium persulfate (6 mM final concentration). Samples were irradiated immediately. Light exposure was of a one-second duration for α-syn and a three-second duration for tau isoform 2N4R, with a 53 W (120 V) incandescent lamp installed in a homemade dark-box. Each tube contained a final volume of 20 μL. After irradiation, 8.3 μL of Laemmli loading buffer containing 15% β-mercaptoethanol were immediately added to the solution, followed by incubation at 95° C. for 10 minutes. The cross-linked samples were separated on a 16% SDS-PAGE gel and visualized by Coomassie blue staining.

tau isoform 2N4R [3] = molecular target: T4, tau isoform 2N4R (Homo sapiens, UniProt P10636); assay: PICUP, tau isoform 2N4R oligomerization; format: biochemical; details: compound 50 μM
T4 construct: made in house; host or cells: E. coli BL21(DE3)
Protocol: (§4) The bacterial expression plasmid consisting of the vector pRK172 carrying a cDNA encoding the human Tau 2N4R isoform was obtained from Dr. David Eliezer (Weill Cornell Medicine, New York, NJ). For protein expression, E. coli BL21(DE3) cells were transformed with the plasmid and grown in LB media supplemented with ampicillin (100 μg/mL). Protein over-expression was induced by the addition of 1 mM IPTG for 4 hours at 37° C., and cells were pelleted by centrifugation at 6,000 g for 15 minutes at 4° C. The cells were resuspended in lysis buffer (20 mM MES, 400 mM NaCl, 0.2 mM MgCl2, 1 mM EGTA, protease inhibitor cocktail (P8340, Sigma Aldrich), 0.25 mg/mL lysozyme, and 1 μg/mL DNase 1, pH 6.8) and lysed by a French press cell disruptor at 4° C., after which the lysate was boiled for 20 minutes. Denatured proteins were pelleted by centrifugation at 30,000 g for 30 minutes at 4° C., and the supernatant was dialyzed overnight against cation exchange buffer (20 mM MES, 50 mM NaCl, 1 mM MgCl2, 1 mM EGTA, 2 mM DTT, 0.1 mM PMSF, pH 6.8). The dialysate was loaded onto a HiPrep SP HP column, and proteins were eluted with a linear gradient ranging from 50 mM to 1 M NaCl. Fractions containing tau isoform 2N4R were pooled, and the resulting protein solution was dialyzed against PBS (pH 7.4) and stored at −80° C.
as §3

Aβ1-42 = molecular target: T5, Aβ1-42 (Homo sapiens, UniProt P05067); assay: ThT fluorescence assay of Aβ1-42 fibril formation; format: biochemical; details: screen on prone-to-aggregate proteins (FIG. 2A, FIG. 4A); Aβ 7 μM
T5 construct: α-syn, Aβ1-40, Aβ1-42 were procured from rPeptide; purchased rPeptide
Protocol: as §1

TTR101-125 = molecular target: T6, TTR101-125 (Homo sapiens, UniProt P02766); assay: ThT fluorescence assay of TTR101-125 fibril formation; format: biochemical
T6 construct: TTR fragments 1-25, 26-50, 51-75, 76-100, 81-105, 101-125, and 101-125 were obtained from GenScript; purchased GenScript; host or cells: synthetic peptide
Protocol: as §1

α-syn [4] = molecular target: T3, α-syn; assay: Transmission electron microscopy (TEM) of α-syn fibrils; format: biochemical; details: compound 100 μM
Protocol: (§5) Transmission electron microscopy (TEM). After performing analysis with ThT fluorescence assay, TEM was utilized to detect fibril formation. A volume of 10 μL was applied to a 400-mesh Formvar-carbon-coated copper grid (Electron Microscopy Sciences, Hatfield, PA). The grids were incubated for 1 minute and washed three times with distilled water. They were carefully air-dried and incubated for 1 minute in a fresh solution of 1% uranyl acetate. Samples were air-dried and observed using a transmission microscope. Visualization of the grids was performed with TEM (JEOL 1400 Flash, Japan). Acquisition of pictures was performed with settings of accelerating voltage of 100 kV and magnification of 25 k and/or 40 k.

TTR81-127 = molecular target: T7, TTR81-127 (Homo sapiens, UniProt P02766); assay: TEM of TTR81-127 fibrils; format: biochemical; details: compound 100 μM, TTR81-127 10 μM, sodium acetate buffer pH 4
T7 construct: TTR fragment 81-127 was obtained from AnaSpec; purchased AnaSpec; host or cells: synthetic peptide

IAPP = molecular target: T8, IAPP (Homo sapiens, UniProt P10997); assay: TEM of IAPP fibrils; format: biochemical; details: compound 100 μM, IAPP 10 μM, PBS
T8 construct: Human islet amyloid polypeptide (IAPP) was procured from AnaSpec; purchased AnaSpec; host or cells: synthetic peptide
T8 sequence (P10997 34-70 limits assumed): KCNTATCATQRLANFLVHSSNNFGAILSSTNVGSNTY
Protocol: as §5

[5] = tested on: M17D neuroblastoma cells that express inclusion-prone αS-3K::YFP; assay: α-Syn inclusion-forming neuroblastoma cell experiment; format: cell-based; details: 40 μM; t=96 hours
Protocol: α-Syn (or αS) inclusion-forming neuroblastoma cell experiment. Dox-inducible neuroblastoma cells M17D-TR/αS-3K::YFP have been used previously. 96-well plates were used with a cellular density of 30,000 cells per well. Compounds were added […], and αS-3K::YFP transgene expression was induced […]. Induction was done by adding 1 μg per mL (final concentration) dox to culture media. Cells were incubated in the Incucyte Zoom 2000 platform (Essen Biosciences), and images (green, bright field) were taken continuously. Endpoint analysis of inclusion formation or growth was performed 48 hours after induction (96 hours after plating). The Incucyte processing definition ‘Inclusions’ was created as follows: Parameters, Fixed Threshold, Threshold (GCU) 50; Edge Split On, Edge Sensitivity 100; Cleanup, Hole Fill (μm^2): 10, Adjust Size (pixels): 0; Filters, Area (μm^2): max 50, Mean Intensity: min 60, Integrated Intensity: min 2000. Cell confluence was measured by the processing definition ‘Cells’: Parameters, Segmentation Adjustment 0.7; Cleanup, all parameters set to 0; Filters, Area (μm^2): min 345.00. As described previously for the evaluation of protein expression by SDS-PAGE and Western Blotting in the LiCor system, αS-specific monoclonal antibody 4B12 (Thermofisher, Waltham, MA; 1:1000) and a polyclonal antibody to GAPDH (Sigma-Aldrich, St. Louis, MO, G9545; 1:5000) were used.

tau isoform 2N4R [6] = molecular target: T4, tau isoform 2N4R; assay: ThT kinetics of tau isoform 2N4R fibril formation; format: biochemical; details: tau 6 μM, compound 100 μM
Protocol: as §4, §2

[7] = compound 100 μM, molar ratio 1:10

T4 sequence (P10636 1-441 isoform P10636-8): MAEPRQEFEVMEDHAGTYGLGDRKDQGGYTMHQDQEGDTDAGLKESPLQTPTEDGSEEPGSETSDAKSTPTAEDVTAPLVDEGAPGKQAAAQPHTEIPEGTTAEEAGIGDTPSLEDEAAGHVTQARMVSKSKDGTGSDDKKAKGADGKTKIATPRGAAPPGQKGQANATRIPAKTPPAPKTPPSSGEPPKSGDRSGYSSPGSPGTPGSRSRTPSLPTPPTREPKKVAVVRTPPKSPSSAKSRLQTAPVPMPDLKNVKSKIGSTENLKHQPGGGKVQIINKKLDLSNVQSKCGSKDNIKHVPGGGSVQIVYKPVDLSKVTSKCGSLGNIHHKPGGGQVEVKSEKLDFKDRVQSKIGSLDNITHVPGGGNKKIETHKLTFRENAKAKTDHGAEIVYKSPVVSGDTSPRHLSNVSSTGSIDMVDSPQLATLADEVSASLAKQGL
T5 sequence (P05067 672-713 limits assumed): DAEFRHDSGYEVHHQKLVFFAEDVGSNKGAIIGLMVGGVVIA

SMILES: O=[N+]([O-])c1ccc2snc(Nc3nc(Cl)nc(Cl)n3)c2c1 [Compound 6, N-(4,6-dichloro-1,3,5-triazin-2-yl)-5-nitro-1,2-benzothiazol-3-amine]
- remaining activity at 100 µM (α-synuclein (α-syn)): > 100%
- remaining activity at 100 µM [1]: 82.6 ± 6%

SMILES: CS(=O)(=O)N(c1nsc2ccc([N+](=O)[O-])cc12)S(C)(=O)=O [Compound 12, N-methanesulfonyl-N-(5-nitro-1,2-benzothiazol-3-yl)methanesulfonamide]
- remaining activity at 100 µM (α-synuclein (α-syn)): > 100%
- remaining activity at 100 µM [1]: 63 ± 17.4%

SMILES: Nc1ccc(-c2nc3ccccc3s2)cc1 [BTA, 4-(2-benzothiazolyl)aniline, reference compound]
- TTR81-127 fibril formation (ThT) [1]: reduced fibril formation
- α-syn oligomer formation (PICUP) (α-syn [2]): not successful in preventing oligomerization
- tau isoform 2N4R oligomer formation (PICUP) (tau isoform 2N4R [3]): not successful in preventing oligomerization
- thioflavin T fluorescence intensity, Aβ1-42 (Aβ1-42): 22.59±0.71%
- TTR101-125 fibril formation (ThT) (TTR101-125; compound 25 μM, molar ratio 1:2.5): continued to reduce TTR101-125 fibrils
- TTR101-125 fibril formation (ThT) (TTR101-125; [7]): reduced fibril formation
- α-syn fibrils by TEM (α-syn [4]): no such branching was observed
- TTR81-127 fibrils by TEM (TTR81-127): reduced fibril formation
- IAPP fibrils by TEM (IAPP): no such branching was observed
- cell confluence [5]: reduction in confluence
- number of αS-3K::YFP inclusions [5]: did not affect the number of inclusions

SMILES: CC(=O)c1ccc(NC(=S)Nc2ccc(-c3nc4ccccc4s3)cc2)cc1 [Compound 2, 1-(4-acetylphenyl)-3-[4-(1,3-benzothiazol-2-yl)phenyl]thiourea]
- TTR81-127 fibril formation (ThT) [1]: to a lesser extent, compound 2 reduced fibril formation
- TTR101-125 fibril formation (ThT) (TTR101-125; compound 50 μM, molar ratio 1:5): weak in inhibiting TTR101-125 fibril formation
- TTR101-125 fibril formation (ThT) (TTR101-125; [7]): to a lesser extent, compound 2 reduced fibril formation

SMILES: O=C(CCl)Nc1nsc2ccc([N+](=O)[O-])cc12 [Compound 11, 2-chloro-N-(5-nitro-1,2-benzothiazol-3-yl)acetamide]
- ThT a-Syn (%), maximum thioflavin T (ThT) intensity in percentage (α-synuclein (α-syn)): 45.3 ± 12.9%
- remaining activity at 100 µM (α-synuclein (α-syn)): 45.3 ± 12.9%
- remaining activity at 100 µM [1]: 59.7 ± 2.6%

SMILES: O=[N+]([O-])c1ccc2snc(Nc3ncnc(Cl)n3)c2c1 [Compound 7, N-(4-chloro-1,3,5-triazin-2-yl)-5-nitro-1,2-benzothiazol-3-amine]
- remaining activity at 100 µM (α-synuclein (α-syn)): > 100%
- remaining activity at 100 µM [1]: > 100%

SMILES: O=C(Cc1ccccc1)Nc1nsc2ccc([N+](=O)[O-])cc12 [Compound 8, N-(5-nitro-1,2-benzothiazol-3-yl)-2-phenylacetamide]
- remaining activity at 100 µM (α-synuclein (α-syn)): > 100%
- remaining activity at 100 µM [1]: 95.2 ± 1.2%

SMILES: O=C(Cc1cccs1)Nc1nsc2ccc([N+](=O)[O-])cc12 [Compound 9]
- remaining activity at 100 µM (α-synuclein (α-syn)): > 100%
- remaining activity at 100 µM [1]: 69 ± 0.1%

SMILES: CC(=O)Nc1nsc2ccc([N+](=O)[O-])cc12 [Compound 10, N-(5-nitro-1,2-benzothiazol-3-yl)acetamide]
- ThT a-Syn (%), maximum thioflavin T (ThT) intensity in percentage (α-synuclein (α-syn)): 55.6 ± 3.2%
- remaining activity at 100 µM (α-synuclein (α-syn)): 55.6 ± 3.2%
- remaining activity at 100 µM [1]: 90.2 ± 2.7%
- production of tau isoform 2N4R fibrils (ThT kinetic aggregation curves) (tau isoform 2N4R [6]): reduced the production of tau isoform 2N4R fibrils
